Assay results as given in patent US10501562B2, “Co-initiator and co-monomer for use in preparing polymer related compositions, methods of manufacture, and methods of use” (University of Kansas, priority 2015, dated 2019).

Legend:
[1] = Chemical stability of amine co-initiators by 1H NMR in DMSO-d6/water; format: physicochemical; conditions: 100 days storage at 25° C., 0.04 M in DMSO-d6/deionized water 80/20 wt/wt
Experimental: The chemical stability of three amine co-initiators (EDMAB, DMAEMA, and TUMA) was characterized by ^1H NMR spectroscopy, which were obtained on a Bruker Advance DRX 500 spectrometer (Bruker AXS Inc., Madison, Wis.) equipped with a broadband probe. Deuterated dimethyl sulfoxide (DMSO-d6)/deionized water (80/20 wt/wt) was used as the solvent. The NMR spectra of 0.04 M amine samples were monitored as a function of storage time at 25° C. The mixed (DMSO/water) solvent was used because of its ability to dissolve EDMAB and TUMA, which are hydrophobic compounds.

[2] = during 24 hours; cited from earlier work

Compound	degraded (chemical stability) [1]	degradation in the presence of water [2]
C=C(C)C(=O)OCCN(C)C [DMAEMA, 2-(dimethylamino) ethyl methacrylate]	37.6%	up to 82%
CCOC(=O)c1ccc(N(C)C)cc1 [EDMAB, Ethyl-4-(dimethylamino) benzoate]	No degradation was detected	–
C=C(C)C(=O)OCCNC(=O)OC(C)CN(CC(C)OC(=O)NCCOC(=O)C(=C)C)CC(C)OC(=O)NCCOC(=O)C(=C)C (stereo not shown) [TUMA, 8-(2-(((2-(methacryloyloxy)ethyl)carbamoyl)oxy)propyl)-6,10-dimethyl-4,12-dioxo-5,11-dioxa-3,8,13-triazapentadecane-1,15-diyl bis(2-methylacrylate)]	No degradation was detected	–
